Reference: publication PMC11848821, “Acrolein-Mediated Conversion of Lysine to Electrophilic Heterocycles for Protein Diversification and Toxicity Profiling” (Journal of the American Chemical Society, 2025)

Experiments:
Assay type in all cases: binding
lysozyme human = biological target: T1, lysozyme human (Homo sapiens, UniProt P61626); assay: intact protein MS and MS/MS; settings: covalent; lysine adduct (FDP)
T1 construct: gene LYZ; commercial protein, mature
T1 sequence (P61626 19-148): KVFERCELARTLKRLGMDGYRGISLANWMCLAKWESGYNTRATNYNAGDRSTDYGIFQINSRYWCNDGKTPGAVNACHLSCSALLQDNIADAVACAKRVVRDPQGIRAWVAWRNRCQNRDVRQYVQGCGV

[1] = biological target: T2, bovine serum albumin (BSA) (Bos taurus, UniProt P02769); assay: in-gel fluorescence after thiol-FITC addition to the adduct; settings: covalent; lysine adduct (FDP); 12 h
T2 construct: gene ALB; commercial native protein, mature

lysozyme chicken = biological target: T3, lysozyme chicken (Gallus gallus, UniProt P00698); assay: intact protein MS and MS/MS; settings: covalent; lysine adduct (FDP)
T3 construct: gene LYZ
T3 sequence (P00698 19-147): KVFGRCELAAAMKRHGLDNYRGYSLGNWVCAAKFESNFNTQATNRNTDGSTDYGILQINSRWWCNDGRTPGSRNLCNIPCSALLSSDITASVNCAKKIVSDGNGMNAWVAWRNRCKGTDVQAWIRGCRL

T2 sequence (P02769 25-607): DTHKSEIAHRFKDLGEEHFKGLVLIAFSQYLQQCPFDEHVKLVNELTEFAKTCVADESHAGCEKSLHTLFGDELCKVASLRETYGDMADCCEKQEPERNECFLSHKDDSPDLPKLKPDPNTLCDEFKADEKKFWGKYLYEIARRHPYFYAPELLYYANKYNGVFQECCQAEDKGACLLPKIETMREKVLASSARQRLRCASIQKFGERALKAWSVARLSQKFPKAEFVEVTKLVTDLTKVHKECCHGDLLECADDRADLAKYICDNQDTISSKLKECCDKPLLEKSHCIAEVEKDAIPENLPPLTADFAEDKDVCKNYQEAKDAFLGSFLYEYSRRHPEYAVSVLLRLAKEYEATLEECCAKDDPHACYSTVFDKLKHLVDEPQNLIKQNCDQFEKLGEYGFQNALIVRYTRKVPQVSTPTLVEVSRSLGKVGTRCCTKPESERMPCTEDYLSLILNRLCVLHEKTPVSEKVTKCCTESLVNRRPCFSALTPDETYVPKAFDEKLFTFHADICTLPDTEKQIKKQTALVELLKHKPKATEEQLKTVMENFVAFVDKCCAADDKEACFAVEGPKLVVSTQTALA

Which “intact protein MS and MS/MS” value (lysozyme human) does the source give for `C=CC=O` [acrolein] here?
The value was “ribonuclease A, lysozyme chicken, lysozyme human, β-lactoglobulin, and apo-Transferrin”.

What about the “in-gel fluorescence after thiol-FITC addition to the adduct” value [1] of the same compound?
Its value is “formation of FDP-lysine and labeling of Apo-transferrin, BSA, and myoglobin with FITC fluorophore”.

And the “intact protein MS and MS/MS” value (lysozyme chicken)?
The value was “ribonuclease A, lysozyme chicken, lysozyme human, β-lactoglobulin, and apo-Transferrin”.
